Reference: the NIST ThermoML archive (doi:10.1016/j.jct.2008.06.001)

What was measured:
[1] = 101.33 kPa, Liquid; for speed of sound: Sing-around technique in a fixed-path interferometer
[2] = xn = mol fraction of the nth substance listed; settings: 101 kPa, Liquid

CCCCCCCCCCO [decan-1-ol]
[1]
Settings | mass density [kg/m3] | speed of sound [m/s]
293.15 K | 829.601 | 1396.2
298.15 K | 826.198 | 1378.9
303.15 K | 822.767 | 1361.7

CCCCCCCCO [octan-1-ol]
[1]
Settings | mass density [kg/m3] | speed of sound [m/s]
293.15 K | 825.183 | 1364.3
298.15 K | 821.732 | 1347.1
303.15 K | 818.248 | 1330.2

CCCCCCCO [heptan-1-ol]
[1]
Settings | mass density [kg/m3] | speed of sound [m/s]
293.15 K | 822.398 | 1344
298.15 K | 818.894 | 1326.7
303.15 K | 815.357 | 1309.9

CCCCCCCO [heptan-1-ol] + CCCCOCCCC
[2]
Settings | mass density [kg/m3]
293.15 K, x1 = 0.1017 | 773.953
293.15 K, x1 = 0.1519 | 776.565
293.15 K, x1 = 0.1998 | 779.042
293.15 K, x1 = 0.2503 | 781.671
293.15 K, x1 = 0.3495 | 786.842
293.15 K, x1 = 0.4019 | 789.598
293.15 K, x1 = 0.4529 | 792.309
293.15 K, x1 = 0.5013 | 794.907
293.15 K, x1 = 0.548 | 797.412
293.15 K, x1 = 0.6032 | 800.39
293.15 K, x1 = 0.6486 | 802.884
293.15 K, x1 = 0.7001 | 805.686
293.15 K, x1 = 0.7515 | 808.582
293.15 K, x1 = 0.7771 | 809.94
293.15 K, x1 = 0.8009 | 811.278
293.15 K, x1 = 0.8982 | 816.689
293.15 K, x1 = 0.947 | 819.42
298.15 K, x1 = 0.0513 | 767.002
298.15 K, x1 = 0.0991 | 769.571
298.15 K, x1 = 0.1526 | 772.412
298.15 K, x1 = 0.2019 | 775.005
298.15 K, x1 = 0.2506 | 777.565
298.15 K, x1 = 0.3033 | 780.366
298.15 K, x1 = 0.3498 | 782.806
298.15 K, x1 = 0.4 | 785.5
298.15 K, x1 = 0.4523 | 788.317
298.15 K, x1 = 0.4995 | 790.883
298.15 K, x1 = 0.5491 | 793.589
298.15 K, x1 = 0.6026 | 796.53
298.15 K, x1 = 0.6503 | 799.167
298.15 K, x1 = 0.6985 | 801.859
298.15 K, x1 = 0.7533 | 804.902
298.15 K, x1 = 0.8005 | 807.562
298.15 K, x1 = 0.8485 | 810.291
298.15 K, x1 = 0.8994 | 813.176
298.15 K, x1 = 0.9439 | 815.703
303.15 K, x1 = 0.0548 | 762.859
303.15 K, x1 = 0.1037 | 765.526
303.15 K, x1 = 0.1537 | 768.203
303.15 K, x1 = 0.2034 | 770.861
303.15 K, x1 = 0.2496 | 773.336
303.15 K, x1 = 0.3003 | 776.062
303.15 K, x1 = 0.3482 | 778.634
303.15 K, x1 = 0.3977 | 781.333
303.15 K, x1 = 0.4501 | 784.185
303.15 K, x1 = 0.4938 | 786.627
303.15 K, x1 = 0.5487 | 789.635
303.15 K, x1 = 0.6009 | 792.536
303.15 K, x1 = 0.6508 | 795.355
303.15 K, x1 = 0.6994 | 798.099
303.15 K, x1 = 0.7519 | 801.07
303.15 K, x1 = 0.8005 | 803.865
303.15 K, x1 = 0.851 | 806.755
303.15 K, x1 = 0.8994 | 809.543
303.15 K, x1 = 0.946 | 812.239

CCCCCCCCCCO [decan-1-ol] + CCCCOCCCC
[2]
Settings | mass density [kg/m3]
293.15 K, x1 = 0.1021 | 776.363
293.15 K, x1 = 0.1496 | 779.787
293.15 K, x1 = 0.1993 | 783.289
293.15 K, x1 = 0.25 | 786.71
293.15 K, x1 = 0.2996 | 789.984
293.15 K, x1 = 0.3412 | 792.683
293.15 K, x1 = 0.3978 | 796.258
293.15 K, x1 = 0.4468 | 799.27
293.15 K, x1 = 0.4978 | 802.397
293.15 K, x1 = 0.5495 | 805.461
293.15 K, x1 = 0.6009 | 808.42
293.15 K, x1 = 0.65 | 811.195
293.15 K, x1 = 0.6993 | 813.929
293.15 K, x1 = 0.7464 | 816.506
293.15 K, x1 = 0.7946 | 819.104
293.15 K, x1 = 0.8488 | 821.951
293.15 K, x1 = 0.9004 | 824.616
293.15 K, x1 = 0.95 | 827.118
298.15 K, x1 = 0.0516 | 768.307
298.15 K, x1 = 0.1006 | 772.051
298.15 K, x1 = 0.1498 | 775.68
298.15 K, x1 = 0.2012 | 779.315
298.15 K, x1 = 0.2522 | 782.834
298.15 K, x1 = 0.2996 | 786.011
298.15 K, x1 = 0.35 | 789.331
298.15 K, x1 = 0.3994 | 792.479
298.15 K, x1 = 0.4479 | 795.536
298.15 K, x1 = 0.4981 | 798.656
298.15 K, x1 = 0.5512 | 801.843
298.15 K, x1 = 0.5993 | 804.66
298.15 K, x1 = 0.6492 | 807.539
298.15 K, x1 = 0.6995 | 810.378
298.15 K, x1 = 0.7501 | 813.185
298.15 K, x1 = 0.7981 | 815.763
298.15 K, x1 = 0.8498 | 818.511
298.15 K, x1 = 0.9001 | 821.147
298.15 K, x1 = 0.9498 | 823.681
303.15 K, x1 = 0.0509 | 763.957
303.15 K, x1 = 0.1009 | 767.841
303.15 K, x1 = 0.1503 | 771.536
303.15 K, x1 = 0.1994 | 775.085
303.15 K, x1 = 0.25 | 778.691
303.15 K, x1 = 0.2996 | 782.028
303.15 K, x1 = 0.3498 | 785.36
303.15 K, x1 = 0.3992 | 788.589
303.15 K, x1 = 0.4451 | 791.54
303.15 K, x1 = 0.4944 | 794.601
303.15 K, x1 = 0.5509 | 798.05
303.15 K, x1 = 0.5921 | 800.526
303.15 K, x1 = 0.6514 | 803.989
303.15 K, x1 = 0.6896 | 806.226
303.15 K, x1 = 0.7493 | 809.528
303.15 K, x1 = 0.7963 | 812.111
303.15 K, x1 = 0.8475 | 814.866
303.15 K, x1 = 0.899 | 817.595
303.15 K, x1 = 0.9474 | 820.099
